{"source": "patent US20240216410A1", "about": "“METHODS AND COMPOSITIONS FOR TREATING CANCER THERAPY-INDUCED NEUTROPENIC FEVER AND/OR GVHD” (BOARD OF REGENTS, THE UNIVERSITY OF TEXAS SYSTEM, priority 2021, published 2024)", "key": {"intestinal microbiome": {"tested_on": "intestinal microbiome", "test": "allo-HSCT patients who underwent intestinal microbiome profiling (meropenem-treated vs untreated)", "assay_type": "in vivo, human", "description": "Next, the effects of meropenem on the composition of the colonic microbiota of transplanted patients and mice were investigated. Fecal specimens were collected from HSCT patients transplanted from 2014 to 2019 and 44 patients were identified who were treated with allo-HSCT following conditioning with fludarabine and busulfan.\nFecal samples collected at baseline following hospital admission around day −7 as well as on day 14 following allo-HSCT were examined (FIG. 15A). […] A paired differential abundance analysis was then performed, asking which bacterial genera were the most changed from baseline in the two subgroups of patients.\nRetrospective study design.\nSequencing of 16S rRNA gene amplicons. Fecal samples from patients and mice were weighed before DNA isolation. In brief, genomic DNA was isolated using the QIAAMP® DNA mini kit (51306, QIAGEN®) according to the manufacturer's protocol that was modified to include an intensive bead-beating lysis step. The V4 region of 16S rRNA gene was amplified by PCR from 100 ng of each of extracted and purified genomic DNA using 515 forward and 806 reverse primer pairs (59). The quality and quantity of the barcoded amplicons were assessed on an Agilent 4200 TapeStation system (Agilent) and QUBIT™ Fluorometer (THERMO FISHER […]™), and libraries were prepared after pooling at equimolar ratios. The final libraries were purified using […]® gel extraction kit (28706X4, QIAGEN®) and sequenced with a 2×250 base pair paired-end protocol on the […]® MISEQ™ platform.\nMicrobiome data analysis. Sequencing data from paired-end reads were de-multiplexed using QIIME 2 (60). Merging of paired-end reads, dereplicating, and length filtering was performed using VSEARCH 2.17.1 (61). Following de-noising and chimera calling using the unoise3 command (62), unique sequences were taxonomically classified with mothur (63) using the Silva database (64) version 138. Weighted UniFrac distances (65) were determined using QIIME 2, visualized using principal coordinate analysis, and evaluated for statistical significance using permutational multivariate analysis of variance (PERMANOVA) testing. For differential abundance analysis, abundances of sequences belonging to taxonomical groups were included for analysis using the Mann-Whitney U test and adjusted for multiple comparisons using the method of Benjamini and Hochberg. Paired samples were analyzed using the Wilcoxon signed rank test with adjustment for multiple comparisons."}, "[1]": {"test": "Murine GVHD model: fecal SCFAs by IC-MS", "assay_type": "in vivo", "settings": "day 18; meropenem-treated allo-HSCT mice", "text": "In some cases, meropenem-induced intestinal dysbiosis contributes to aggravated GVHD via loss of beneficial commensal bacteria. In some embodiments, meropenem-treated allogeneic mice show a loss of Clostridia abundance and a reduction in SCFA levels, including butyrate. On day 7, or 4 days following the start of meropenem treatment, Clostridia were depleted in meropenem-treated mice and remained so at 6 days after stopping 5 meropenem (FIG. 20A).\nShort Chain Fatty Acids profiling by ion chromatography-mass spectrometry (IC-MS). To determine the relative abundance of short chain fatty acids in mouse feces samples, extracts were prepared and analyzed by ultra-high resolution mass spectrometry (HRMS). Fecal pellets were homogenized with a […]® Tissue Homogenizer. Metabolites were extracted using 1 mL ice-cold 0.1% Ammonium hydroxide in 80/20 (v/v) methanol/water. Extracts were centrifuged at 17,000 g for 5 min at 4° C., and supernatants were transferred to clean tubes, followed by evaporation to dryness under nitrogen. Dried extracts were reconstituted in deionized water, and 5 μL was injected for analysis by IC-MS. IC mobile phase A (MPA; weak) was water, and mobile phase B (MPB; strong) was water containing 100 mM KOH. A THERMO […]™ DIONEX™ ICS-5000+ system included a THERMO FISHER […]™ IONPAC™ AS11 column ([…], 250×2 mm) with column compartment kept at 30° C. […]"}, "[2]": {"tested_on": "neutrophils and dendritic cells in the colon", "test": "Murine GVHD model: colonic infiltration by neutrophils and dendritic cells", "assay_type": "in vivo", "settings": "meropenem-treated mice with GVHD", "text": "Altogether, these findings indicate that, in some cases, meropenem treatment leads to compromise of the colonic mucus layer, increased bacterial translocation and an aggravated inflammatory response.\nHistological and immunohistochemistry analysis. […] Pathology scores were quantified by a blinded pathologist. […] Sections were imaged using an APERIO® AT2.\nLamina propria hematopoietic cell dissociation. Murine colons were isolated, dissected longitudinally and then on a shaker in 2% fetal bovine serum in PBS with 1 mM DL-dithiothreitol (Bioworld) at 37 °C for 20 min and subsequently incubated with 1.3 mM EDTA at 37° C. for 40 min. They were rinsed twice and digested with 0.3 mg/ml of type IV collagenase (C5138, SIGMA-ALDRICH®) at 37 °C for 45 min, homogenized, filtered, and washed.\nFlow cytometric analysis. Monoclonal antibodies conjugated with fluorescein isothiocynate, phycoerythrin, phycoerythrin-Cy7, peridinin-chlorophyll protein complexes, allophycocyanin, or allophycocyanin-Cy7 were purchased from Tonbo Biosciences (San Diego, CA), EBIOSCIENCE™ (San Diego, CA), or BIOLEGEND® (San Diego, CA.). […] In flow cytometric analysis, at least 100,000 live samples were analyzed using BD LSRFORTESSA™ X-20 (BD Biosciences) and FlowJo software (Trec Star, OR). […]"}, "[3]": {"settings": "44 microbiome-profiled patients, meropenem days −10 to 14"}}, "note": "“Also recorded” adds a separate entry of the source."}
{"compound": "C[C@@H](O)[C@H]1C(=O)N2C(C(=O)O)=C(S[C@@H]3CN[C@H](C(=O)N(C)C)C3)[C@H](C)[C@H]12", "note": "[meropenem]", "values": [{"measurement": "Acute GVHD Grade 0, number of patients", "setting": "intestinal microbiome; [3]", "value": 7}, {"measurement": "Acute GVHD Grade 0, percentage of patients", "setting": "intestinal microbiome; [3]", "value": "(38%)"}, {"measurement": "Acute GVHD Grade I, number of patients", "setting": "intestinal microbiome; [3]", "value": 0}, {"measurement": "Acute GVHD Grade I, percentage of patients", "setting": "intestinal microbiome; [3]", "value": "(0%)"}, {"measurement": "Acute GVHD Grade II, number of patients", "setting": "intestinal microbiome; [3]", "value": 7}, {"measurement": "Acute GVHD Grade II, percentage of patients", "setting": "intestinal microbiome; [3]", "value": "(38%)"}, {"measurement": "Acute GVHD Grade III-IV, number of patients", "setting": "intestinal microbiome; [3]", "value": 4}, {"measurement": "Acute GVHD Grade III-IV, percentage of patients", "setting": "intestinal microbiome; [3]", "value": "(22%)"}, {"measurement": "bacterial genera most changed from baseline (paired differential abundance)", "setting": "intestinal microbiome; fecal samples pre-HSCT vs day 14", "value": "significant expansion of bacteria from the genus Bacteroides"}, {"measurement": "fecal levels of SCFAs", "setting": "[1]", "value": "significantly decreased; also recorded: reduced fecal levels of SCFAs, with particularly dramatic reductions in butyrate and valerate"}, {"measurement": "colonic tissue infiltration by neutrophils and dendritic cells", "setting": "[2]", "value": "marked colonic tissue infiltration by neutrophils and dendritic cells"}]}
